“Also recorded” adds a separate entry of the source.
What was measured:
non-NMDA receptors [1] = experiment: Inward membrane current elicited by the compound alone in Xenopus oocytes injected with rat hippocampus poly(A)+ RNA (agonist action); assay type: cell-based; details: antagonist 1 μM
Procedure: (§1) 50 nl of the poly(A)^+ RNA (1 μg/μl) isolated was injected into an oocyte by a micromanipulator and the oocytes were cultured in a Barth's medium (88 mM NaCl, 1 mM KCl, 2.4 mM NaHCO3, 0.3 mM Ca(NO3)2, 0.41 mM CaCl2, 0.82 mM MgSO4, 10 μg/ml sodium penicillin, 10 μg/ml streptomycin sulfate, and 15 mM HEPES) at 19° C. for three to four days and used for measurement.
(§2) The above-mentioned oocyte was set in a chamber under perfusion of frog Ringer's solution (120 mM NaCl, 2 mM KCl, 1.8 mM CaCl2, and 5 mM HEPES, pH 7.4) and microelectrodes were inserted into oocytes and the membrane potential was fixed at -70 mV. Subsequently, another frog Ringer's solution in which AMPA (100 μM) or kainate(KA) (100 μM) both of which are agonists for non-NMDA receptors was dissolved was substituted for the original Ringer's solution and then an inward membrane current was measured.

non-NMDA receptors [2] = experiment: Potentiation of AMPA- or kainic acid-elicited membrane current in Xenopus oocytes injected with rat hippocampus poly(A)+ RNA (two-electrode voltage clamp)
Procedure: By use of an improved method of Masu's Xenopus oocyte expression system [Nature 329,836 (1987)] an electrophysiological analysis was conducted.
(1) Preparation of poly(A)^+ RNA isolated from a rat hippocampus.
A hippocampus region was isolated from a rat and homogenized in the presence of […] and total RNA was extracted from the hippocampus by means of the ultracentrifugating method utilizing cesium chloride. Poly(A)^+ RNA was refined from the obtained RNA by use of oligo dT cellulose column.
(2) Expression of protein in Xenopus oocytes
as §1
(3) Electrophysiological and pharmacological experiment by two-electrodes voltage clamp method.
as §2
The membrane potential was fixed at -70 mV. The response was defined as one which was generated on the specimen under perfusion of frog Ringer's solution in which AMPA or kainic acid both of which are agonists for non-NMDA receptors was dissolved until a final concentration of 100 μM. The responses are shown as relative values which were measured on the oocytes under perfusion of frog Ringer's solution in which the compound of the invention and anilacetum which is a potentiator for non-NMDA receptors were dissolved until a concentration of 50 μM with AMPA or kainic acid.

[3] = 50 μM test substance with 100 μM AMPA, membrane potential -70 mV, control (AMPA alone) = 1
[4] = 50 μM test substance with 100 μM kainic acid, membrane potential -70 mV, control (kainic acid alone) = 1

| SMILES | Potentiation (relative values with a control as 1), AMPA (non-NMDA receptors [2]; xenopus oocytes, 50 µM) | Potentiation (relative values with a control as 1), kainic acid (non-NMDA receptors [2]; xenopus oocytes, 50 µM) | further results |
| --- | --- | --- | --- |
| C[C@]12N[C@H](Cc3ccccc31)c1ccccc12 [MK-801] | – | – | Inhibition of inward membrane current elicited by the compound of the invention alone (non-NMDA receptors [1]): not inhibited |
| COC(=O)COc1c(F)cc(SCCNS(=O)(=O)c2ccc(Cl)cc2)cc1F [Compound 128, methyl 4-[2-(4-chlorophenylsulfonylamino)ethylthio]-2,6-difluorophenoxyacetate] | 1.5 | 1.6 | – |
| CN(C)C(=O)COc1ccc(SCCNS(=O)(=O)c2ccccc2)cc1F [Compound 143, N,N-Dimethyl-4-[2-(phenylsulfonylamino)ethylthio]-2-fluorophenoxyacetamide] | 1.4 | 1.6 | – |
| NC(=O)COc1c(F)cc(SCCNS(=O)(=O)c2ccccc2)cc1F [Compound 139, 4-[2-(Phenylsulfonylamino)ethylthio]-2,6-difluorophenoxyacetamide] | – | – | Potentiation of the non-NMDA receptor response (membrane current elicited by kainic acid and AMPA), in words (non-NMDA receptors [2]; 50 μM compound with 100 μM AMPA or kainic acid): definitely active; also recorded: especially strong action; Potentiation (relative values with a control as 1), AMPA (non-NMDA receptors [2]; [3]): 23.2; Potentiation (relative values with a control as 1), kainic acid (non-NMDA receptors [2]; [4]): 2.8 |
| NC(=O)Cc1ccc(SCCNS(=O)(=O)c2ccccc2)cc1 [Compound 145, 4-[2-(phenylsulfonylamino)ethylthio]phenylacetamide] | 1.3 | 1.5 | – |
| COc1ccc(C(=O)N2CCCC2=O)cc1 [anilacetum, reference compound] | – | – | Potentiation (relative values with a control as 1), AMPA (non-NMDA receptors [2]; [3]): does not potentiate; Potentiation (relative values with a control as 1), AMPA (non-NMDA receptors [2]; 50 μM test substance with 100 μM AMPA, membrane potential -70 mV, control (AMPA alone) = 1, 50 µM): 1; Potentiation (relative values with a control as 1), kainic acid (non-NMDA receptors [2]; [4]): does not potentiate; Potentiation (relative values with a control as 1), kainic acid (non-NMDA receptors [2]; 50 μM test substance with 100 μM kainic acid, membrane potential -70 mV, control (kainic acid alone) = 1, 50 µM): 1; Effect on response elicited by AMPA (non-NMDA receptors [2]; 1 mM test substance): doubles; Effect on response elicited by kainic acid (non-NMDA receptors [2]; 1 mM test substance (20 times in concentration)): does not affect |
| NC(=O)COc1ccc(SCCNS(=O)(=O)c2ccccc2)cc1F [Compound 142, 4-[2-(Phenylsulfonylamino)ethylthio]-2-fluorophenoxyacetamide] | 1.6 | 1.5 | – |
| O=C(O)COc1ccc(SCCNS(=O)(=O)c2ccc(Br)cc2)cc1F [Compound 106, 2-Fluoro-4-[2-(4-bromophenylsulfonylamino)ethylthio]phenoxyacetic acid] | 1.4 | 1.5 | – |
| O=C(O)COc1c(F)cc(SCCNS(=O)(=O)c2ccc(Cl)cc2)cc1F [Compound 68, 2,6-Difluoro-4-[2-(4-chlorophenylsulfonylamino)ethylthio]phenoxyacetic acid] | 1.5 | 1.6 | – |
| N#Cc1cc2[nH]c(=O)c(=O)[nH]c2cc1[N+](=O)[O-] [CNQX, reference compound] | – | – | Inhibition of inward membrane current elicited by the compound of the invention alone (non-NMDA receptors [1]): inhibited; Inhibition of inward membrane current elicited by AMPA (100 μM) or kainate (100 μM) (non-NMDA receptors [2]; antagonist 1 μM, -70 mV): inhibited |

Source: patent US5955505A, “Glutamic acid receptor agonist” (Nippon Suisan Kaisha, Ltd., priority 1995, dated 1999)
